Measurements taken from ChEMBL document CHEMBL3885861, “Open TG-GATES”.

Organism: Rattus norvegicus
Assay: Open TG-GATES - Regimen: Single
Assay type: toxicity, organism-based, Sprague-Dawley
Parameters: regimen Single, gender Male, age 6 weeks
Conditions: in vivo, po, 0 mg/kg, route gavage, dose level Control; for APTT / Bas / Eos / Fbg / Hb / Ht / Lym / MCH / MCHC / MCV / Mono / Neu / PT / Plat / RBC / Ret / WBC: tissue Blood; for KIDNEY_L / KIDNEY_R / KIDNEY_TOTAL: tissue Kidney; for LIVER: tissue Liver; for A/G / ALP / ALT / AST / BUN / CRE / Ca / Cl / DBIL / GLC / IP / K / LDH / Na / PL / RALB / TBIL / TC / TG / TP / gamma-GTP: tissue Plasma

For `CC(C)(S)[C@@H](N)C(=O)O` [PENICILLAMINE], the TERMINAL_BW (3 h) was 202 g, the APTT (3 h) was 15 s and the Bas (3 h) was 0%. The Eos (3 h) was 1%, the Fbg (3 h) was 302 mg/dL and the Hb (3 h) was 13.8 g/dL. The Ht (3 h) was 42.5%, the Lym (3 h) was 79.4% and the MCH (3 h) was 21.6 pg. The MCHC (3 h) was 32.5%, the MCV (3 h) was 66.4 fL and the Mono (3 h) was 2.8%. For the same compound, the Neu (3 h) was 15.8%, the PT (3 h) was 14.4 s and the Plat (3 h) was 123.9 x10_4/uL. For the same compound, the RBC (3 h) was 639.6 x10_4/ul, the Ret (3 h) was 9.1% and the WBC (3 h) was 90 x10_2/uL. The KIDNEY_L (3 h) was 0.9 g, the KIDNEY_R (3 h) was 0.9 g and the KIDNEY_TOTAL (3 h) was 1.7 g. The LIVER (3 h) was 9 g, the A/G (3 h) was 0.9 and the ALP (3 h) was 1505 IU/L. For the same compound, the ALT (3 h) was 42.2 IU/L, the AST (3 h) was 75.2 IU/L and the BUN (3 h) was 10 mg/dL. For the same compound, the CRE (3 h) was 0.2 mg/dL, the Ca (3 h) was 11.1 mg/dL and the Cl (3 h) was 106.2 meq/L. It also gave a DBIL (3 h) of 0.014 mg/dL, a GLC (3 h) of 178.8 mg/dL and an IP (3 h) of 8.4 mg/dL. It also gave a K (3 h) of 4.4 meq/L, an LDH (3 h) of 74.6 IU/L and a Na (3 h) of 141.8 meq/L. The PL (3 h) was 137.4 mg/dL, the RALB (3 h) was 2.6 g/dL and the TBIL (3 h) was 0.032 mg/dL. For the same compound, the TC (3 h) was 71.4 mg/dL, the TG (3 h) was 72.6 mg/dL and the TP (3 h) was 5.3 g/dL. For the same compound, the gamma-GTP (3 h) was 1.2 IU/L, the TERMINAL_BW (6 h) was 201.2 g and the APTT (6 h) was 16.2 s. For the same compound, the Bas (6 h) was 0%, the Eos (6 h) was 1% and the Fbg (6 h) was 301.2 mg/dL. For the same compound, the Hb (6 h) was 13.3 g/dL, the Ht (6 h) was 41.1% and the Lym (6 h) was 79.2%. For the same compound, the MCH (6 h) was 20.6 pg, the MCHC (6 h) was 32.4% and the MCV (6 h) was 63.7 fL. It also gave a Mono (6 h) of 2.6%, a Neu (6 h) of 16.2% and a PT (6 h) of 14.3 s. The Plat (6 h) was 130.7 x10_4/uL, the RBC (6 h) was 646.2 x10_4/ul and the Ret (6 h) was 8.8%. The WBC (6 h) was 87.2 x10_2/uL, the KIDNEY_L (6 h) was 0.9 g and the KIDNEY_R (6 h) was 0.9 g. The KIDNEY_TOTAL (6 h) was 1.7 g, the LIVER (6 h) was 8.5 g and the A/G (6 h) was 0.9. The ALP (6 h) was 1217 IU/L, the ALT (6 h) was 34.4 IU/L and the AST (6 h) was 70.6 IU/L. For the same compound, the BUN (6 h) was 9.6 mg/dL, the CRE (6 h) was 0.2 mg/dL and the Ca (6 h) was 11 mg/dL. The Cl (6 h) was 106 meq/L, the DBIL (6 h) was 0.008 mg/dL and the GLC (6 h) was 175.8 mg/dL. The IP (6 h) was 8.9 mg/dL, the K (6 h) was 4.3 meq/L and the LDH (6 h) was 76 IU/L. For the same compound, the Na (6 h) was 142.8 meq/L, the PL (6 h) was 135 mg/dL and the RALB (6 h) was 2.5 g/dL. For the same compound, the TBIL (6 h) was 0.038 mg/dL, the TC (6 h) was 75.8 mg/dL and the TG (6 h) was 52.4 mg/dL. The TP (6 h) was 5.3 g/dL, the gamma-GTP (6 h) was 1 IU/L and the TERMINAL_BW (9 h) was 199.9 g. It also gave an APTT (9 h) of 16.9 s, a Bas (9 h) of 0% and an Eos (9 h) of 0.6%. For the same compound, the Fbg (9 h) was 300 mg/dL, the Hb (9 h) was 13.5 g/dL and the Ht (9 h) was 41.9%. It also gave a Lym (9 h) of 80%, an MCH (9 h) of 21.1 pg and an MCHC (9 h) of 32.3%. It also gave an MCV (9 h) of 65.3 fL, a Mono (9 h) of 2.6% and a Neu (9 h) of 16.2%. It also gave a PT (9 h) of 14.5 s, a Plat (9 h) of 126.8 x10_4/uL and an RBC (9 h) of 641.4 x10_4/ul. For the same compound, the Ret (9 h) was 9.1%, the WBC (9 h) was 92.7 x10_2/uL and the KIDNEY_L (9 h) was 0.9 g. It also gave a KIDNEY_R (9 h) of 0.9 g, a KIDNEY_TOTAL (9 h) of 1.8 g and an LIVER (9 h) of 8.1 g. It also gave an A/G (9 h) of 0.9, an ALP (9 h) of 1372.8 IU/L and an ALT (9 h) of 40.6 IU/L. The AST (9 h) was 72 IU/L, the BUN (9 h) was 8.6 mg/dL and the CRE (9 h) was 0.1 mg/dL. For the same compound, the Ca (9 h) was 10.7 mg/dL, the Cl (9 h) was 106.4 meq/L and the DBIL (9 h) was 0.006 mg/dL. The GLC (9 h) was 187.4 mg/dL, the IP (9 h) was 9.8 mg/dL and the K (9 h) was 4.2 meq/L. It also gave an LDH (9 h) of 68.4 IU/L, a Na (9 h) of 143.6 meq/L and a PL (9 h) of 144 mg/dL. For the same compound, the RALB (9 h) was 2.6 g/dL, the TBIL (9 h) was 0.034 mg/dL and the TC (9 h) was 82 mg/dL. The TG (9 h) was 55 mg/dL, the TP (9 h) was 5.4 g/dL and the gamma-GTP (9 h) was 1.2 IU/L. It also gave a TERMINAL_BW (24 h) of 214.6 g, an APTT (24 h) of 16.2 s and a Bas (24 h) of 0%. The Eos (24 h) was 1%, the Fbg (24 h) was 317.2 mg/dL and the Hb (24 h) was 13.3 g/dL. The Ht (24 h) was 40.9%, the Lym (24 h) was 76.8% and the MCH (24 h) was 21.3 pg. For the same compound, the MCHC (24 h) was 32.6%, the MCV (24 h) was 65.2 fL and the Mono (24 h) was 3.6%. For the same compound, the Neu (24 h) was 17.6%, the PT (24 h) was 13.9 s and the Plat (24 h) was 125.8 x10_4/uL. For the same compound, the RBC (24 h) was 626.4 x10_4/ul, the Ret (24 h) was 8.2% and the WBC (24 h) was 92.6 x10_2/uL. For the same compound, the KIDNEY_L (24 h) was 0.9 g, the KIDNEY_R (24 h) was 0.9 g and the KIDNEY_TOTAL (24 h) was 1.8 g. It also gave an LIVER (24 h) of 9.5 g, an A/G (24 h) of 0.9 and an ALP (24 h) of 1418.8 IU/L. It also gave an ALT (24 h) of 43 IU/L, an AST (24 h) of 74.6 IU/L and a BUN (24 h) of 13.2 mg/dL. It also gave a CRE (24 h) of 0.2 mg/dL, a Ca (24 h) of 11.1 mg/dL and a Cl (24 h) of 105.8 meq/L. For the same compound, the DBIL (24 h) was 0.01 mg/dL, the GLC (24 h) was 174.8 mg/dL and the IP (24 h) was 7.2 mg/dL. For the same compound, the K (24 h) was 4 meq/L, the LDH (24 h) was 80 IU/L and the Na (24 h) was 143.4 meq/L. It also gave a PL (24 h) of 160.4 mg/dL, an RALB (24 h) of 2.6 g/dL and a TBIL (24 h) of 0.026 mg/dL. The TC (24 h) was 83 mg/dL, the TG (24 h) was 115.6 mg/dL and the TP (24 h) was 5.5 g/dL. For the same compound, the gamma-GTP (24 h) was 1 IU/L.
